# Data taken from patent publication US10457687B2, “Aminoacid derivatives, a process for their preparation and pharmaceutical compositions containing them” (LES LABORATOIRES SERVIER, priority 2015, dated 2019).
# Molecular target: Mcl-1 protein (Homo sapiens, UniProt Q07820)
# Experiment: Inhibition of Mcl-1 by the fluorescence polarisation technique (Method 1 or Method 2)
# Assay type: binding
# Conditions: for IC50: fluorescence polarisation, Fluorescein labelled ligand, Method 1 (not underlined) or Method 2 (underlined), read-out: IC50 (μM) Mcl-1 FP; for percentage fluorescence polarisation inhibition, Mcl-1 FP: partial inhibitors
# In short: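 Fluorescence polarisation competition of 11-point compound dilutions (5% DMSO final) against fluorescein-labelled ligand for Mcl-1. Method 1: 1 nM ligand, 5 nM protein in 10 mM HEPES, 150 mM NaCl, 0.05% Tween 20, pH 7.4; Method 2: 10 nM ligand, 10 nM protein in 20 mM Na2HPO4, 1 mM EDTA, 50 mM NaCl, pH 7.4.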
# Chain of Mcl-1 protein (Q07820 whole entry): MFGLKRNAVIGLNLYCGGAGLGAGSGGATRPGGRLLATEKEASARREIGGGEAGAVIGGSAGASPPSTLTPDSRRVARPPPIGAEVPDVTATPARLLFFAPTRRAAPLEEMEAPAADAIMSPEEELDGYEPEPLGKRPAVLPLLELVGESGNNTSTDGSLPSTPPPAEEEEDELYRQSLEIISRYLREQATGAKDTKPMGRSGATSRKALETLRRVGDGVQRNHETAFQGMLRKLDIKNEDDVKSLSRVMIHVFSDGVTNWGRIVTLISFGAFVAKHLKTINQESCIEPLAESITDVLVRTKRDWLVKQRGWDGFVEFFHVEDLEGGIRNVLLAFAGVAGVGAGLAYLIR
SMILES,IC50 [µM],also measured
"C=C(C)c1sc2ncnc(NC(Cc3ccccc3)C(=O)O)c2c1-c1cccc2ccccc12 [Example 107, N-[(5Ra)-5-(naphthalen-1-yl)-6-(prop-1-en-2-yl)thieno[2,3-d]pyrimidin-4-yl]-D-phenylalanine]",0.544,
"CCc1sc2ncnc(NC(Cc3ccccc3)C(=O)O)c2c1-c1cccc2c1c(Cl)cn2CCN1CCCCC1 [Example 234, N-((5Ra)-5-{3-chloro-1-[2-(piperidin-1-yl)ethyl]-1H-indol-4-yl}-6-ethyl-thieno[2,3-d]pyrimidin-4-yl)-D-phenylalanine]",,"percentage fluorescence polarisation inhibition, Mcl-1 FP (@ 50 μM test compound): 68.7% @ 50 μM"
"CCc1sc2ncnc(NC(Cc3ccccc3C(F)(F)F)C(=O)O)c2c1-c1cccc(Cl)c1C [Example 138, N-[(5Sa)-5-(3-chloro-2-methylphenyl)-6-ethylthieno[2,3-d]pyrimidin-4-yl]-2-(trifluoromethyl)-D-phenylalanine]",0.664,
"CCc1sc2ncnc(N[C@H](Cc3ccccc3C(F)(F)F)C(=O)O)c2c1-c1cccc(Cl)c1C [Example 137, N-[(5Ra)-5-(3-chloro-2-methylphenyl)-6-ethylthieno[2,3-d]pyrimidin-4-yl]-2-(trifluoromethyl)-D-phenylalanine]",,"percentage fluorescence polarisation inhibition, Mcl-1 FP (@ 50 μM test compound): 71.05% @ 50 μM"
"CCc1sc2ncnc(NC(Cc3ccccc3)C(=O)O)c2c1-c1cccc2ccccc12 [Example 100, N-[6-ethyl-(5Ra)-5-(naphthalen-1-yl)thieno[2,3-d]pyrimidin-4-yl]-D-phenylalanine]",4.75,
"CCc1sc2ncnc(N[C@H](Cc3ccccc3)C(=O)O)c2c1-c1cccc(O)c1C [Example 67, N-[6-ethyl-5-(3-hydroxy-2-methylphenyl)thieno[2,3-d]pyrimidin-4-yl]-D-phenylalanine]",2.08,
"CCc1sc2ncnc(NC(Cc3ccccc3)C(=O)O)c2c1-c1ccc(OCC(=O)O)c(Cl)c1C [Example 57, N-{(5Sa)-5-[4-(carboxymethoxy)-3-chloro-2-methylphenyl]-6-ethylthieno[2,3-d]pyrimidin-4-yl}-D-phenylalanine]",0.106,
"CCc1sc2ncnc(NC(Cc3ccccc3)C(=O)O)c2c1-c1ccnc(Cl)c1C [Example 78, N-[(5Sa)-5-(2-chloro-3-methylpyridin-4-yl)-6-ethylthieno[2,3-d]pyrimidin-4-yl]-D-phenylalanine]",0.135,
"CCc1sc2ncnc(N[C@H](Cc3ccccc3)C(=O)O)c2c1-c1cccc2c1c(Cl)cn2CCN(C)C [Example 231, N-((5Ra)-5-{3-chloro-1-[2-(dimethylamino)ethyl]-1H-indol-4-yl}-6-ethyl-thieno[2,3-d]pyrimidin-4-yl)-D-phenylalanine]",,"percentage fluorescence polarisation inhibition, Mcl-1 FP (@ 50 μM test compound): 56.75% @ 50 μM"
"Cc1c(Cl)cccc1-c1c(C(C)C)sc2ncnc(N[C@H](Cc3ccccc3)C(=O)O)c12 [Example 220, N-[(5Ra)-5-(3-chloro-2-methylphenyl)-6-(propan-2-yl)thieno[2,3-d]pyrimidin-4-yl]-D-phenylalanine]",,"percentage fluorescence polarisation inhibition, Mcl-1 FP (@ 10 μM test compound): 31.7% @ 10 μM"
"CCc1sc2ncnc(NC(Cc3ccccc3)C(=O)O)c2c1-c1cccc2[nH]ccc12 [Example 74, N-[6-ethyl-(5Ra)-5-(1H-indol-4-yl)thieno[2,3-d]pyrimidin-4-yl]-D-phenylalanine]",0.621,
"CCc1sc2ncnc(N[C@H](Cc3ccccc3)C(=O)O)c2c1-c1cccc2ncccc12 [Example 80, N-[6-ethyl-5-(quinolin-5-yl)thieno[2,3-d]pyrimidin-4-yl]-D-phenylalanine]",0.487,
"C=Cc1sc2ncnc(NC(Cc3ccccc3)C(=O)O)c2c1-c1cccc2ccccc12 [Example 103, N-[6-ethenyl-(5Ra)-5-(naphthalen-1-yl)thieno[2,3-d]pyrimidin-4-yl]-D-phenylalanine]",0.715,
"CCc1sc2ncnc(NC(Cc3ccccc3)C(=O)O)c2c1-c1ccc(OCCCN2CCN(C)CC2)c(Cl)c1C [Example 64, N-((5Sa)-5-{3-chloro-2-methyl-4-[3-(4-methylpiperazin-1-yl)propoxy]phenyl}-6-ethylthieno[2,3-d]pyrimidin-4-yl)-D-phenylalanine]",0.025,
"CCc1sc2ncnc(N[C@H](Cc3c[nH]c4ccccc34)C(=O)O)c2c1-c1cccc2ccccc12 [Example 184, N-[6-ethyl-(5Ra)-5-(naphthalen-1-yl)thieno[2,3-d]pyrimidin-4-yl]-D-tryptophan]",,"percentage fluorescence polarisation inhibition, Mcl-1 FP (@ 200 μM test compound): 76.8% @ 200 μM"
"CCc1sc2ncnc(NC(Cc3ccccc3)C(=O)O)c2c1-c1cccc2cnn(C)c12 [Example 88, N-[6-ethyl-(5Sa)-5-(1-methyl-1H-indazol-7-yl)thieno[2,3-d]pyrimidin-4-yl]-D-phenylalanine]",1.23,
"Cc1c(Cl)cccc1-c1c(C(C)C)sc2ncnc(N[C@@H](Cc3ccccc3)C(=O)O)c12 [Example 218, N-[(5Sa)-5-(3-chloro-2-methylphenyl)-6-(propan-2-yl)thieno[2,3-d]pyrimidin-4-yl]-L-phenylalanine]",,"percentage fluorescence polarisation inhibition, Mcl-1 FP (@ 50 μM test compound): 71.5% @ 50 μM"
"CCc1sc2ncnc(NC(Cc3ccccc3)C(=O)O)c2c1-c1cccc2ccn(C)c12 [Example 84, N-[6-ethyl-(5Ra)-5-(1-methyl-1H-indol-7-yl)thieno[2,3-d]pyrimidin-4-yl]-D-phenylalanine]",4.02,
"CCCCn1nccc1COc1ccccc1CC(Nc1ncnc2sc(-c3ccc(F)o3)c(-c3ccc(OCCN4CCN(C)CC4)c(Cl)c3C)c12)C(=O)O [Example 24, 2-[(1-butyl-1H-pyrazol-5-yl)methoxy]-N-[(5Sa)-5-{3-chloro-2-methyl-4-[2-(4-methylpiperazin-1-yl)ethoxy]phenyl}-6-(5-fluorofuran-2-yl)thieno[2,3-d]pyrimidin-4-yl]-D-phenylalanine]",0.008,

# Now from value to compound, other results behind:
IC50 [µM],SMILES,also measured
12.6,"CCc1sc2ncnc(N[C@@H](C(=O)O)c3ccccc3)c2c1-c1cccc2ccccc12 (single isomer, unassigned) [Example 161]",
34.6,"CCc1sc2ncnc(N[C@H](Cc3c[nH]cn3)C(=O)O)c2c1-c1cccc2ccccc12 [Example 190, N-[6-ethyl-5-(naphthalen-1-yl)thieno[2,3-d]pyrimidin-4-yl]-D-histidine]",
8.36,"CC(C)(O)c1sc2ncnc(NC(Cc3ccccc3)C(=O)O)c2c1-c1cccc2ccccc12 [Example 210, N-[6-(2-hydroxypropan-2-yl)-(5Sa)-5-(naphthalen-1-yl)thieno[2,3-d]pyrimidin-4-yl]-D-phenylalanine]",
0.154,"CCc1sc2ncnc(NC(Cc3ccccc3OCCC3CCCC3)C(=O)O)c2c1-c1cccc(Cl)c1C [Example 144, N-[(5Sa)-5-(3-chloro-2-methylphenyl)-6-ethylthieno[2,3-d]pyrimidin-4-yl]-2-(2-cyclopentylethoxy)-D-phenylalanine]",
0.047,"CCc1sc2ncnc(NC(Cc3ccccn3)C(=O)O)c2c1-c1cccc(Cl)c1C [Example 152, N-[(5Sa)-5-(3-chloro-2-methylphenyl)-6-ethylthieno[2,3-d]pyrimidin-4-yl]-3-pyridin-2-yl-D-alanine]",
0.668,"O=C(O)[C@@H](Cc1ccccc1)Nc1ncnc2sc(I)c(-c3cccc4ccccc34)c12 [Example 211, N-[6-iodo-5-(naphthalen-1-yl)thieno[2,3-d]pyrimidin-4-yl]-D-phenylalanine]",
2.78,"CCc1sc2ncnc(NC(Cc3ccccc3)C(=O)O)c2c1-c1cccc2c1c(Cl)cn2CCN1CCN(C)CC1 [Example 238, N-((5Sa)-5-{3-chloro-1-[2-(4-methylpiperazin-1-yl)ethyl]-1H-indol-4-yl}-6-ethyl-thieno[2,3-d]pyrimidin-4-yl)-D-phenylalanine]",
0.298,"CC(=O)c1sc2ncnc(NC(Cc3ccccc3)C(=O)O)c2c1-c1cccc2ccccc12 [Example 199, N-[6-acetyl-(5Sa)-5-(naphthalen-1-yl)thieno[2,3-d]pyrimidin-4-yl]-D-phenylalanine]",
1.39,"CCc1sc2ncnc(N[C@H](Cc3cccc4ccccc34)C(=O)O)c2c1-c1cccc2ccccc12 (single isomer, unassigned) [Example 187, N-[6-ethyl-5-(naphthalen-1-yl)thieno[2,3-d]pyrimidin-4-yl]-3-naphthalen-1-yl-D-alanine]",
11.7,"CCc1sc2ncnc(N[C@@H](C(=O)O)c3ccccc3)c2c1-c1cccc2ccccc12 (single isomer, unassigned) [Example 160]",
14,"CCc1sc2ncnc(NC(Cc3ccccc3OCc3cccc(Cl)c3)C(=O)O)c2c1-c1cccc(Cl)c1C [Example 149, 2-[(3-chlorobenzyl)oxy]-N-[(5Ra)-5-(3-chloro-2-methylphenyl)-6-ethylthieno[2,3-d]pyrimidin-4-yl]-D-phenylalanine]",
0.315,"CCc1sc2ncnc(NC(CC3CCCCC3)C(=O)O)c2c1-c1cccc2ccccc12 [Example 165, 3-cyclohexyl-N-[6-ethyl-(5Ra)-5-(naphthalen-1-yl)thieno[2,3-d]pyrimidin-4-yl]-D-alanine]",
0.073,"CCc1sc2ncnc(N[C@H](CC3CCCCC3)C(=O)O)c2c1-c1cccc2[nH]ccc12 (single isomer, unassigned) [Example 243, 3-cyclohexyl-N-[6-ethyl-5-(1H-indol-4-yl)thieno[2,3-d]pyrimidin-4-yl]-D-alanine]",
0.958,"CCc1sc2ncnc(NC(Cc3ccccc3)C(=O)O)c2c1-c1cccc2c1c(Cl)cn2CCCN1CCN(C)CC1 [Example 240, N-((5Sa)-5-{3-chloro-1-[3-(4-methylpiperazin-1-yl)propyl]-1H-indol-4-yl}-6-ethyl-thieno[2,3-d]pyrimidin-4-yl)-D-phenylalanine]",
6.79,"CCc1sc2ncnc(NC(Cc3ccc(O)cc3)C(=O)O)c2c1-c1cccc2ccccc12 [Example 173, N-[6-ethyl-(5Sa)-5-(naphthalen-1-yl)thieno[2,3-d]pyrimidin-4-yl]-D-tyrosine]",
